Measurements reported in patent US6174897A, “Bis-(quinolyl)-diamines” (Bayer Aktiengesellschaft, priority 1996, dated 2001).

How the values were obtained:
[1] = target: apamin binding sites / apamin receptors (bovine cerebral membrane, calf hippocampus); assay: Binding of 125I-apamin to bovine cerebral membrane; settings: 125I-apamin 30 pM, calf hippocampus membranes
Protocol: 1) Binding of ^125 1I-apamine to Bovine Cerebral Membrane
Calf brains were obtained from the local abattoir. The hippocampus was prepared on ice and a membrane suspension was made up by homogenization twice in buffer (100 mM Tris-HCl, KCl 5 mM, pH 7.4) and centrifugation at 43,000×g. In a total volume of 500 μl, the incubation mixture contained 200 μg of membrane protein, 30 pM ^125 I-apamin and test substances in the concentration range 1×10^-9 to 1×10^-4 M. The non-specific binding of ^125 I-apamine was determined in the presence of 1×10^-7 M unlabelled apamin.
After preincubation for 30 min at room temperature (test substances and membrane homogenate), the samples were placed on ice for 10 min before the radioligand was added. The main incubation time was 60 min on ice. When the reaction time had elapsed, an excess of ice-cooled incubation buffer was added to each sample and the mixture was filtered with suction through cellulose acetate/nitrate membrane filters. The amount of bound ^125 I-apamin was measured with a gamma counter.

[2] = system: apamin-sensitive potassium channels (PC12 cells); assay: Non-radioactive Rb+ efflux assay in PC12 cells; assay type: cell-based
Protocol: 2) Non-radioactive Rb^+ Efflux Assay for the Identification of Potassium Channel Modulators
The cellular potassium in PC12 cells is exchanged with rubidium, which is not present in the cells. This exchange is performed by incubating the cells over a period of 4 h in a physiological buffer containing 5.4 mM RbCl without KCl. This rubidium subsequently serves as a tracer for potassium. The cells laden with Rb^+ in this way are washed three times and then stimulated by depolarization with 50 mM KCl to open potassium channels (10 min), causing Rb^+ to flow out of the cells into the supernatant according to the concentration gradient.
The rubidium contents in the cell supernatant and in the residual cells after they have been lysed with 1% Triton X-100 are then determined by means of atomic absorption spectroscopy. The relative proportion of rubidium in the cell supernatent (=Rb^+ efflux) is used as a measure of the potassium channel activity.
The effect of substances on the channel activity is measured by co-incubating the test substance over the ten-minute stimulation period and determining its effect on the Rb^+ efflux in the manner described above.

| SMILES | Ki [1] [nM] | % inhibition of the Rb efflux ([2]; at 1 μM) [%] | % inhibition of the Rb efflux ([2]; test concentration of 10 μM) [%] |
| --- | --- | --- | --- |
| CCCc1cc(NCCCCCNc2cc(CCC)nc3ccccc23)c2ccccc2n1 [Example 2] | 13 | – | – |
| Cc1cccc2c(NCCCCCNc3cc(C(C)C)nc4c(C)cccc34)cc(C(C)C)nc12 [Example 4] | – | 68 | 75 |
| CCc1cc(NCCCCCNc2cc(CC)nc3ccccc23)c2ccccc2n1 [Example 1] | 17 | – | 77 |
